From US9499554B2, “Anti-influenza compositions and methods” (priority 2013, dated 2016) come the findings set out here.

Values after ≈ are worked out from the molar mass of the structure shown.

The test system of the experiment is A/NJ/15/2007 (H1N1-H274Y). The format is cell-based, Influenza A.

Regarding `Nc1ncnc2c([C@@H]3N[C@H](CO)[C@@H](O)[C@H]3O)c[nH]c12` [compound 1, (2S,3S,4R,5R)-2-(4-Amino-5H-pyrrolo[3,2-d]pyrimidin-7-yl)-5-(hydroxymethyl)pyrrolidine-3,4-diol], the “EC50, antiviral activity in MDCK cells” value turned out to be 1.39 µg/mL (≈ 5.24 µM).
